Among the test systems are A498 renal; ACHN renal; CCRF-CEM leukemia; COLO 205 colon; KM12 colon; LOX IMVI melanoma; NCI-H23 lung; RXF 393 renal; SK-MEL-28 melanoma; SN12C renal.
Common to all, as to assay: inhibition of tumour cell growth, NCI panel, 48 h

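In this assay, cells in 96-well plates receive the compound at five concentrations for 48 hours. Endpoints are linearly interpolated between the surrounding concentrations. GI50 is the concentration that inhibits growth by half. The concentration for full growth arrest is given as TGI.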

Take `Cc1ccc(O)cc1Nc1ccnc2ccc(S(C)(=O)=O)cc12`: the GI50 in the test on A498 renal is 1750 nM; with ACHN renal, 612 nM; in the test with CCRF-CEM leukemia, more than 25000 nM; in the test with COLO 205 colon, 470 nM; in the test with KM12 colon it was more than 25 µM; in the test with LOX IMVI melanoma, 516 nM. For the same molecule, the GI50 was 5.97 µM in the test with NCI-H23 lung, 381 nM in the test with RXF 393 renal, 1980 nM with SK-MEL-28 melanoma and 2820 nM with SN12C renal. Further, the TGI in the test on A498 renal was 6.18 µM; with ACHN renal it was 7.75 µM; in the test with CCRF-CEM leukemia it was more than 25 µM; with COLO 205 colon it was 2.83 µM; with KM12 colon, more than 25 µM; with LOX IMVI melanoma, 3.89 µM. Also, the TGI in the test with NCI-H23 lung is more than 25 µM; with RXF 393 renal it was 1.99 µM; with SK-MEL-28 melanoma, more than 25 µM; in the test with SN12C renal, more than 25 µM.

On to `O=C(NC12CC3CCC1CC(C3)C2)[C@@H]1CCCN1C(=O)OCc1ccccc1` (stereo not given in full), for which the TGI with A498 renal, in the test with ACHN renal, with CCRF-CEM leukemia, in the test on COLO 205 colon, in the test with KM12 colon and in the test on LOX IMVI melanoma was more than 100 µM throughout. The TGI with NCI-H23 lung is more than 100 µM; in the test on RXF 393 renal, 54.6 µM; in the test on SK-MEL-28 melanoma, more than 100 µM; in the test on SN12C renal, more than 100 µM.

On to `O=C1C=C[C@H](O)[C@@]2(CO)O[C@@H]12`, for which the GI50 with A498 renal is 18400 nM; in the test on ACHN renal, 9420 nM; in the test on CCRF-CEM leukemia it was 2700 nM; in the test on COLO 205 colon, 1840 nM; in the test with KM12 colon, 12.1 µM; with LOX IMVI melanoma it was 5510 nM. Besides, the GI50 with NCI-H23 lung was 15.8 µM; in the test with RXF 393 renal it was 4960 nM; in the test on SK-MEL-28 melanoma, 12800 nM; in the test with SN12C renal it was 8530 nM. Also, the TGI in the test with A498 renal amounted to 45.4 µM; in the test on ACHN renal, 22 µM; in the test on CCRF-CEM leukemia, 12.3 µM; in the test on COLO 205 colon, 3.55 µM; in the test on KM12 colon it was 24.5 µM; in the test with LOX IMVI melanoma it was 19.8 µM. In addition, the TGI in the test with NCI-H23 lung was found to be 31.3 µM; in the test on RXF 393 renal, 12 µM; in the test with SK-MEL-28 melanoma, 25.7 µM; with SN12C renal it was 22.4 µM.

In the case of `CCN(C)c1nc(N(C)CC)c2nc(N(C)CC)nc(N(C)CC)c2n1`, the TGI in the test on A498 renal, in the test with ACHN renal, with CCRF-CEM leukemia, in the test with COLO 205 colon, in the test with KM12 colon and in the test with LOX IMVI melanoma was more than 100 µM in each case. Moreover, the TGI in the test on NCI-H23 lung, with RXF 393 renal, with SK-MEL-28 melanoma and in the test with SN12C renal was more than 100 µM throughout.

In the case of `COc1ccc(OC)c(/C=C/c2nc(=S)n(-c3ccc(Cl)cc3)[nH]2)c1`, the GI50 is 6660 nM with A498 renal; 23800 nM in the test on ACHN renal; 4770 nM with CCRF-CEM leukemia; 12400 nM in the test with COLO 205 colon; 4.03 µM in the test on KM12 colon; 5020 nM with LOX IMVI melanoma. Also, the GI50 in the test on NCI-H23 lung is 5.88 µM; in the test on RXF 393 renal, 3380 nM; in the test with SK-MEL-28 melanoma, 11100 nM; with SN12C renal, 6070 nM. The TGI with A498 renal is more than 100 µM; in the test with ACHN renal, more than 100 µM; in the test on CCRF-CEM leukemia, more than 100 µM; with COLO 205 colon it was 68.4 µM; in the test with KM12 colon, more than 100 µM; in the test on LOX IMVI melanoma it was more than 100 µM. In addition, the TGI in the test on NCI-H23 lung is more than 100 µM; with RXF 393 renal, 38.7 µM; with SK-MEL-28 melanoma it was more than 100 µM; in the test on SN12C renal it was more than 100 µM.

Take `CNCc1cccc2c1OCCOCCOCCN(C)S(=O)(=O)c1ccc(cc1)-c1cnc(N)c(n1)C(=O)N2`: the GI50 was 133 nM in the test on A498 renal; 468 nM in the test with ACHN renal; 549 nM with CCRF-CEM leukemia; 775 nM in the test with COLO 205 colon; 2.29 µM in the test with KM12 colon; 1050 nM with LOX IMVI melanoma. Also, the GI50 with NCI-H23 lung is 2.47 µM; in the test with RXF 393 renal, 614 nM; in the test with SK-MEL-28 melanoma it was 1740 nM; in the test with SN12C renal, 1480 nM. Also, the TGI turned out to be 4.04 µM in the test on A498 renal; 2.21 µM in the test with ACHN renal; 3.95 µM with CCRF-CEM leukemia; 3.23 µM with COLO 205 colon; 14.6 µM in the test with KM12 colon; 3.23 µM with LOX IMVI melanoma. Also, the TGI in the test on NCI-H23 lung is 27.9 µM; in the test on RXF 393 renal it was 2.58 µM; in the test with SK-MEL-28 melanoma it was 3.56 µM; in the test on SN12C renal it was 3.41 µM.

Consider `CN(C)CCCC1(c2ccc(F)cc2)OCc2cc(-c3cccc4[nH]ccc34)ccc21` (stereo not given), for which the GI50 was 1560 nM in the test on A498 renal; 1680 nM with ACHN renal; 1650 nM with CCRF-CEM leukemia; 1470 nM with COLO 205 colon; 1.74 µM with KM12 colon; 1710 nM with LOX IMVI melanoma. Besides, the GI50 in the test with NCI-H23 lung is 1.83 µM; in the test on RXF 393 renal, 1460 nM; in the test with SK-MEL-28 melanoma, 1830 nM; in the test with SN12C renal, 1550 nM. The TGI with A498 renal was 2.96 µM; in the test with ACHN renal it was 3.04 µM; in the test on CCRF-CEM leukemia it was 3.95 µM; in the test on COLO 205 colon it was 2.88 µM; with KM12 colon, 3.27 µM; with LOX IMVI melanoma it was 3.2 µM. The TGI with NCI-H23 lung was 3.62 µM; in the test with RXF 393 renal, 2.88 µM; with SK-MEL-28 melanoma, 3.27 µM; in the test with SN12C renal, 2.96 µM.

`Nc1ncc(Cc2ccc3c(c2)OCO3)c(N)n1`: the TGI in the test with A498 renal, in the test with ACHN renal, in the test on CCRF-CEM leukemia, in the test on COLO 205 colon, in the test with KM12 colon and in the test with LOX IMVI melanoma was more than 100 µM throughout. Also, the TGI in the test with NCI-H23 lung, with RXF 393 renal, in the test with SK-MEL-28 melanoma and in the test with SN12C renal was more than 100 µM in each case.
